For test [1], the system named is HCV Genotype 1 (either Genotype 1a or Genotype 1b). Description: Rising multiple dose study in non-responder patients, HCV-RNA viral load by RT-PCR. In kind it is in vivo. On the procedure: A rising multiple dose study was conducted in four groups of non-responder patients in which 100, 200 and 400 mg BID and 400 mg TID dosages of the compound of Formula la were administered for 14 days. […] The methodology used was a randomized, placebo controlled, multi-center, third-party-blind, multiple-dose study of the compound of Formula Ia in non-responders conducted in accordance with Good Clinical Practices. For the purpose of this study, it should be noted that the non-responders also were patients in whom one or more symptoms were established in association with, or the possibility of one or more symptoms was suspected of in association with, HCV Genotype 1 (either Genotype 1a or Genotype 1b) specifically. In order to measure viral load, the Hepatitis C virus RNA (HCV-RNA) is measured by extracting total RNA from plasma or serum samples and using an in-house real-time reverse transcriptase polymerase chain reaction (RT-PCR) assay with a lower limit of detection of 29 International Units (IU)/mL. The amplification target is the 5′-Untranslated region (UTR) of the HCV genome. An internal RNA control is added to each sample to assess the efficiency of RNA extraction. Appropriate negative and positive controls are added in each assay run. The assay method has been validated against the WHO International Standard for HCV. The HCV-RNA amount in a sample is reported as copies of HCV-RNA per mL of sample and also as HCV IU per mL of sample. When <100 copies of HCV-RNA per mL are found, the HCV-RNA is considered to be undetectible.

Test [2] relates to HCV Genotype 1 (1a or 1b). Description: Parallel group, rising multiple-dose, 3 period crossover study in non-responders, HCV-RNA viral load. In kind it is in vivo, patients. As for the experimental part:
In order to measure viral load, the Hepatitis C virus RNA (HCV-RNA) is measured by extracting total RNA from plasma or serum samples and using an in-house real-time reverse transcriptase polymerase chain reaction (RT-PCR) assay with a lower limit of detection of 29 International Units (IU)/mL. The amplification target is the 5′-Untranslated region (UTR) of the HCV genome. An internal RNA control is added to each sample to assess the efficiency of RNA extraction. Appropriate negative and positive controls are added in each assay run. The assay method has been validated against the WHO International Standard for HCV. The HCV-RNA amount in a sample is reported as copies of HCV-RNA per mL of sample and also as HCV IU per mL of sample. When <100 copies of HCV-RNA per mL are found, the HCV-RNA is considered to be undetectible.
A second study was commenced in patients having detectible levels ([…] copies per mL tissue or fluid) HCV Genotype 1 (1a or 1b) and whom were already established as non-responders from previous trials.
The methodology of the study was a parallel group, rising, multiple-dose, 3 period crossover (within each group) study in which subjects are treated with pegylated interferon (PEG-Intron, commercially available from Schering-Plough), 1.5 mcg/kg of the compound of Formula Ia or combination treatment of PEG-Intron 1.5 mcg/kg and the compound of Formula Ia. The doses of the compound of Formula Ia used for each group were 200 mg TID or 400 mg TID.
Twelve patients were treated in a random sequence with each 200 mg TID dose of the compound of Formula Ia alone for 7 days, PEG-Intron once weekly for two doses, and a combination treatment of 200 mg TID of the compound of Formula la plus PEG-Intron for 14 days. Preliminary results from the 200 mg TID dose group are illustrated in FIG. 2.

On to `CC(C)(C)NC(=O)N[C@H](C(=O)N1C[C@H]2[C@@H]([C@H]1C(=O)NC(CC1CCC1)C(=O)C(N)=O)C2(C)C)C(C)(C)C` (mixture of isomers) [Formula Ia], for which the “average maximum reduction of viral load from baseline” value in test [1] (400 mg TID for 14 days, monotherapy, 10 non-responder patients) turned out to be 2 logs. In addition, in test [1] (100, 200 and 400 mg BID and 400 mg TID for 14 days), the “effect of monotherapy on viral load” value is recorded as “reduced viral load in all patients”. In addition, the “HCV-RNA viral load following discontinuation of treatment” value in test [1] (after the 14-day treatment, all patients) is “returned to baseline levels in all patients”. In addition, the “mean maximum HCV-RNA reduction” value in test [2] (200 mg TID alone for 7 days, preliminary results) stood at 0.85 logs. Also, in test [2] (200 mg TID in combination with PEG-Intron 1.5 mcg/kg weekly, two weeks of treatment), the “average maximum reduction in HCV-RNA viral load” value is recorded as 2.4 logs. For the same molecule, the “course of viral load in the second week” value in test [2] (200 mg TID in combination with PEG-Intron, 14 days) is given as “viral load continued to decline in the second week”. In addition, in test [2] (200 mg TID in combination with PEG-Intron, end of 14 days, one patient (decrease by 4.5 logs)), the “HCV-RNA viral load level of one patient at the end of therapy (undetectible)” value is recorded as < 100 copies per mL of tissue or fluid.

The record behind these values is patent US20070004635A1, “Method of treating interferon non-responders using HCV protease inhibitor” (Schering Corporation, priority 2005, published 2007).
